≈ marks a conversion by molar mass, not a printed value. Where “and” joins values, the source holds several entries; their conditions need not be identical. Equal values may be shown once. Marks after values point to notes of the source that are not given here.
Legend:
Candida albicans = test: MIC testing (CLSI M27-A3); format: cell-based; design: MIC: unit not given beside the values; conditions: for MIC Range: in µg/mL
C. glabrata strains [1] = test: MIC testing (CLSI M27-A3); format: cell-based; design: MIC: unit not given beside the values
C. glabrata strains [2] = test: MFC determination; format: cell-based; design: MFC: unit not given beside the values
C. krusei strains = test: MFC determination; format: cell-based
C. parapsilosis = test: MIC testing (CLSI M27-A3); format: cell-based; design: MIC: unit not given beside the values
C. tropicalis = test: MIC testing (CLSI M27-A3); format: cell-based
all Candida strains = test: MFC determination, summary; format: cell-based
Cr. neoformans strains [3] = test: MIC testing (CLSI M27-A3, YNB, 72 h); format: cell-based, Cryptococcus neoformans
Cr. neoformans strains [4] = test: MFC determination; format: cell-based, Cryptococcus neoformans; conditions: Cr. neoformans
[5] = test system: individual Aspergillus spp. (Table 12, species not named); test: MIC testing (CLSI M38-A2), Table 12; format: cell-based; conditions: Aspergillus sp. of Table 12, caspofungin read as MEC
[6] = test system: individual Aspergillus spp. (Table 14, species not named); test: MIC testing (CLSI M38-A2), Table 14; format: cell-based; conditions: Aspergillus sp. of Table 14, caspofungin read as MEC
[7] = test system: individual Aspergillus spp. (Table 14, species not named); test: MFC determination, Table 14; format: cell-based; conditions: Aspergillus sp. of Table 14
[8] = test system: individual Aspergillus spp. (Table 15, species not named); test: MFC determination, Table 15; format: cell-based; conditions: Aspergillus sp. of Table 15
[9] = test system: all Aspergillus strains tested; test: MIC testing (CLSI M38-A2), summary; format: cell-based; conditions: caspofungin read as MEC
[10] = test system: all Aspergillus strains tested; test: MFC determination, summary; format: cell-based
Fusarium strains [11] = test: MIC testing (CLSI M38-A2), Table 17; format: cell-based, Fusarium spp.; conditions: Fusarium strains (Table 17)
Fusarium strains [12] = test: MFC determination, Table 17; format: cell-based, Fusarium spp.; conditions: Fusarium strains (Table 17)
[13] = test system: Fusarium strains (Table 18); test: MFC determination, Table 18; format: cell-based, Fusarium spp.
Penicillium strains [14] = test: MIC testing (CLSI M38-A2); format: cell-based, Penicillium spp.
Penicillium strains [15] = test: MFC determination; format: cell-based, Penicillium spp.
A. fumigatus AF91 = test: In vitro activity (MFC) against the infecting strain, Example 17; format: cell-based, Aspergillus fumigatus; conditions: Aspergillus fumigatus, read-out: MFC
Method: Minimum Fungicidal Concentration: MFC determinations were performed according to the modifications previously described by Canton et al., Diagn. Microbiol. Infect. Dis., 45:203-206, 2003, and Ghannoum and Isham, Infectious Diseases in Clinical Practice, 15(4):250-253, 2007.
Specifically, the total contents of each clear well from the MIC assay were subcultured onto potato dextrose agar. To avoid antifungal carryover, the aliquots were allowed to soak into the agar and then were streaked for isolation once dry, thus removing the cells from the drug source. Fungicidal activity is defined as ≥99.9% reduction in the number of colony forming units (CFU)/ml from the starting inoculum count, while fungistatic activity is defined as <99.9% reduction. […] MIC and MFC values are considered to be equivalent if they are within 2 dilutions.

C. albicans SC5314 [16] = test: In vitro activity (MIC) against the infecting strain, Example 18; format: cell-based, Candida albicans; conditions: Candida albicans, read-out: MIC
C. albicans SC5314 [17] = test: In vitro activity (MFC) against the infecting strain, Example 18; format: cell-based, Candida albicans; conditions: Candida albicans, read-out: MFC
Candida albicans SC5314 = test: Disseminated candidiasis in immunocompromised murine model (BALB/c mice): tissue fungal burden; format: in vivo; conditions: 7 days
[18] = test system: Aspergillus fumigatus AF91; test: Disseminated Aspergillosis in immunocompromised murine model (CD-1 mice): tissue fungal burden; conditions: 7 days
[19] = individual C. glabrata strain with elevated MICs to non-polyene comparators (Table 22)
[20] = Experiment II, 0.5 mg/kg i.v. daily
[21] = Experiment II, 1.0 mg/kg i.v. daily

C[C@@H]1[C@H](O)[C@@H](C)/C=C/C=C/C=C/C=C/C=C/C=C/C=C/[C@H](O[C@@H]2O[C@H](C)[C@@H](O)[C@H](N)[C@@H]2O)C[C@@H]2O[C@](O)(C[C@@H](O)[C@H](O)CC[C@@H](O)C[C@@H](O)C[C@@H](O)CC(=O)O[C@H]1C)C[C@H](O)[C@H]2C [Compound 1A]
MIC Range (Candida albicans; Fluconazole-resistant C. albicans n = 7): 1-2 | MIC Range (Candida albicans; Fluconazole-susceptible C. albicans n = 13): 0.125-1 | MIC50 (Candida albicans; Fluconazole-susceptible C. albicans n = 13, inhibits 50% of strains): 0.5 µg/mL (≈ 0.559 µM) | MIC90 (Candida albicans; Fluconazole-susceptible C. albicans n = 13, inhibits 90% of strains): 1 µg/mL (≈ 1.12 µM) | MIC (Candida albicans; individual C. albicans strain with elevated MICs to non-polyene comparators (Table 22)): 1 (6×) and 2 | MIC Range (C. glabrata strains [1]; C. glabrata strains, in µg/mL): 0.25-2 | MIC50 (C. glabrata strains [1]; C. glabrata, inhibits 50% of strains): 1 µg/mL (≈ 1.12 µM) | MIC90 (C. glabrata strains [1]; C. glabrata, inhibits 90% of strains): 2 µg/mL (≈ 2.24 µM) | MIC (C. glabrata strains [1]; [19]): 1 (5×) and 2 | MFC Range (C. glabrata strains [2]; C. glabrata strains, in µg/mL): 0.5-2 | MFC50 (C. glabrata strains [2]; C. glabrata, kills 50% of strains): 1 µg/mL (≈ 1.12 µM) | MFC90 (C. glabrata strains [2]; C. glabrata, kills 90% of strains): 2 µg/mL (≈ 2.24 µM) | MFC (C. glabrata strains [2]; [19]): 1 (5×) and 2 | MFC Range (C. krusei strains; C. krusei strains, in µg/mL): 0.5-2 | MFC50 (C. krusei strains; C. krusei, kills 50% of strains): 1 µg/mL (≈ 1.12 µM) | MFC90 (C. krusei strains; C. krusei, kills 90% of strains): 2 µg/mL (≈ 2.24 µM) | MFC (C. krusei strains; individual C. krusei strain with elevated MICs to non-polyene comparators (Table 22)): 2 µg/mL (≈ 2.24 µM) | MIC Range (C. parapsilosis; C. parapsilosis strains, in µg/mL): 0.25-2 | MIC50 (C. parapsilosis; C. parapsilosis, inhibits 50% of strains): 0.25 µg/mL (≈ 0.28 µM) | MIC90 (C. parapsilosis; C. parapsilosis, inhibits 90% of strains): 2 µg/mL (≈ 2.24 µM) | MIC (C. parapsilosis; individual C. parapsilosis strain with elevated MICs to non-polyene comparators (Table 22)): 0.5 (2×) and 1 | MIC Range (C. tropicalis; C. tropicalis strains, in µg/mL): 0.5-8 | MIC50 (C. tropicalis; C. tropicalis, inhibits 50% of strains): 1 µg/mL (≈ 1.12 µM) | MIC90 (C. tropicalis; C. tropicalis, inhibits 90% of strains): 8 µg/mL (≈ 8.95 µM) | MFC Range (all Candida strains; in µg/mL): 0.125-16 | MFC50 (all Candida strains; kills 50% of strains): 1 µg/mL (≈ 1.12 µM) | MFC90 (all Candida strains; kills 90% of strains): 2 µg/mL (≈ 2.24 µM) | MIC Range (Cr. neoformans strains [3]; Cr. neoformans strains, 72 h, in µg/mL): 0.5-2 | MIC50 (Cr. neoformans strains [3]; Cr. neoformans, inhibits 50% of strains): 1 µg/mL (≈ 1.12 µM) | MIC90 (Cr. neoformans strains [3]; Cr. neoformans, inhibits 90% of strains): 1 µg/mL (≈ 1.12 µM) | MFC50 (Cr. neoformans strains [4]; kills 50% of strains): 1 µg/mL (≈ 1.12 µM) | MFC90 (Cr. neoformans strains [4]; kills 90% of strains): > 4 µg/mL | MIC Range ([5]; in µg/mL): 1-4 | MIC50 ([5]; inhibits 50% of strains): 2 µg/mL (≈ 2.24 µM) | MIC90 ([5]; inhibits 90% of strains): 2 µg/mL (≈ 2.24 µM) | MIC Range ([6]; in µg/mL): 1-2 | MIC50 ([6]; inhibits 50% of strains): 2 µg/mL (≈ 2.24 µM) | MIC90 ([6]; inhibits 90% of strains): 2 µg/mL (≈ 2.24 µM) | MFC50 ([7]; kills 50% of strains): 2 µg/mL (≈ 2.24 µM) | MFC90 ([7]; kills 90% of strains): 4 µg/mL (≈ 4.47 µM) | MFC50 ([8]; kills 50% of strains): > 4 µg/mL | MFC90 ([8]; kills 90% of strains): > 4 µg/mL | MIC Range ([9]; in µg/mL): 0.5-4 | MIC50 ([9]; inhibits 50% of strains): 2 µg/mL (≈ 2.24 µM) | MIC90 ([9]; inhibits 90% of strains): 2 µg/mL (≈ 2.24 µM) | MFC50 ([10]; kills 50% of strains): 4 µg/mL (≈ 4.47 µM) | MFC90 ([10]; kills 90% of strains): > 4 µg/mL | MIC Range (Fusarium strains [11]; in µg/mL): 1-4 | MIC50 (Fusarium strains [11]; inhibits 50% of strains): 2 µg/mL (≈ 2.24 µM) | MIC90 (Fusarium strains [11]; inhibits 90% of strains): 4 µg/mL (≈ 4.47 µM) | MFC Range (Fusarium strains [12]; in µg/mL): 1-4 | MFC50 (Fusarium strains [12]; kills 50% of strains): 2 µg/mL (≈ 2.24 µM) | MFC90 (Fusarium strains [12]; kills 90% of strains): > 4 µg/mL | MFC50 ([13]; kills 50% of strains): 2 µg/mL (≈ 2.24 µM) | MFC90 ([13]; kills 90% of strains): > 4 µg/mL | MIC Range (Penicillium strains [14]; Penicillium strains, in µg/mL): 0.5-2 | MIC50 (Penicillium strains [14]; Penicillium, inhibits 50% of strains): 2 µg/mL (≈ 2.24 µM) | MIC90 (Penicillium strains [14]; Penicillium, inhibits 90% of strains): 2 µg/mL (≈ 2.24 µM) | MFC50 (Penicillium strains [15]; kills 50% of strains): 2 µg/mL (≈ 2.24 µM) | MFC90 (Penicillium strains [15]; kills 90% of strains): 4 µg/mL (≈ 4.47 µM) | MFC (A. fumigatus AF91): 2 µg/mL (≈ 2.24 µM) | MIC (C. albicans SC5314 [16]): 0.5 µg/mL (≈ 0.559 µM) | MFC (C. albicans SC5314 [17]): 0.5 µg/mL (≈ 0.559 µM) | Brain tissue fungal burden, Mean log CFUs ± the standard deviation (Candida albicans SC5314; Experiment I, 0.35 mg/kg i.v.): 2.92 ± 1.21 log CFUs | Kidney tissue fungal burden, Mean log CFUs ± the standard deviation (Candida albicans SC5314; Experiment I, 0.35 mg/kg i.v.): 3.16 ± 1.41 log CFUs | Brain tissue fungal burden, Mean log CFUs ± the standard deviation (Candida albicans SC5314; Experiment I, 0.7 mg/kg i.v.): 3.59 ± 1.20 log CFUs | Kidney tissue fungal burden, Mean log CFUs ± the standard deviation (Candida albicans SC5314; Experiment I, 0.7 mg/kg i.v.): 2.66 ± 2.11 log CFUs | Brain tissue fungal burden, Mean log CFUs ± the standard deviation (Candida albicans SC5314; Experiment II, 0.35 mg/kg i.v.): 3.55 ± 1.26 log CFUs | Kidney tissue fungal burden, Mean log CFUs ± the standard deviation (Candida albicans SC5314; Experiment II, 0.35 mg/kg i.v.): 3.53 ± 0.63 log CFUs | Brain tissue fungal burden, Mean log CFUs ± the standard deviation (Candida albicans SC5314; Experiment II, 0.7 mg/kg i.v.): 2.97 ± 2.04 log CFUs | Kidney tissue fungal burden, Mean log CFUs ± the standard deviation (Candida albicans SC5314; Experiment II, 0.7 mg/kg i.v.): 2.99 ± 1.05^a,b log CFUs | Kidney tissue fungal burden, Mean log CFUs ± the standard deviation ([18]; Experiment I, 0.5 mg/kg i.v.): 3.16 ± 0.40 log CFUs | Lung tissue fungal burden, Mean log CFUs ± the standard deviation ([18]; Experiment I, 0.5 mg/kg i.v.): 3.46 ± 0.49 log CFUs | Kidney tissue fungal burden, Mean log CFUs ± the standard deviation ([18]; Experiment I, 1.0 mg/kg i.v.): 0.51 ± 1.02 log CFUs | Lung tissue fungal burden, Mean log CFUs ± the standard deviation ([18]; Experiment I, 1.0 mg/kg i.v.): 0.55 ± 1.10 log CFUs | Kidney tissue fungal burden, Mean log CFUs ± the standard deviation [18, 20]: 2.93 ± 0.73 log CFUs | Lung tissue fungal burden, Mean log CFUs ± the standard deviation [18, 20]: 2.75 ± 0.93 log CFUs | Kidney tissue fungal burden, Mean log CFUs ± the standard deviation [18, 21]: 1.16 ± 1.10 log CFUs | Lung tissue fungal burden, Mean log CFUs ± the standard deviation [18, 21]: 1.17 ± 1.15 log CFUs

— patent US20230138395A1, “PHARMACEUTICAL COMPOSITIONS OF A THERAPEUTIC POLYENE MACROLIDE AND METHODS OF THEIR USE” (priority 2020, published 2023)
